Source: publication PMC6703856 (Biochemistry, 2019)
Read-outs that look alike come from different tables or passages of the source.

Assays:
[1] = system: NBD-labelled MBP (cysteine mutation at Ser337); type: binding, Escherichia coli
[2] = biological target: MBP I329W mutant (Escherichia coli, UniProt P0AEX9, I355W); assay: Maltose fluorescence titration, peak wavelength of tryptophan fluorescence; type: binding; conditions: I329W mutant relative to wild-type protein

Compound | weakening of maltose affinity by the NBD dye ([1]; monitored by NBD fluorescence intensity) [fold] | weakening of maltose affinity by the NBD dye ([1]; monitored by peak wavelength of tryptophan fluorescence) [fold] | increase in maltose binding affinity [2] [fold] | increase in maltose Kd;app ([1]; 100 g/L BSA, NBD fluorescence) [fold]
OC[C@H]1O[C@H](O[C@H]2[C@H](O)[C@@H](O)C(O)O[C@@H]2CO)[C@H](O)[C@@H](O)[C@@H]1O (mixture of isomers) [maltose] | 24 | 5 | 100 | 
bovine serum albumin [BSA] |  |  |  | 16
